We go through 2 compounds from patent publication US20100111908A1, “Induction of Renal Cells for Treatment of Kidney Disease” (priority 2008, published 2010).

SMILES strings stand for the structures.

One data set deals with T1, CaR (Homo sapiens, UniProt P41180).
T1 construct: host or cells: monocytes
T1 sequence (P41180 20-1078): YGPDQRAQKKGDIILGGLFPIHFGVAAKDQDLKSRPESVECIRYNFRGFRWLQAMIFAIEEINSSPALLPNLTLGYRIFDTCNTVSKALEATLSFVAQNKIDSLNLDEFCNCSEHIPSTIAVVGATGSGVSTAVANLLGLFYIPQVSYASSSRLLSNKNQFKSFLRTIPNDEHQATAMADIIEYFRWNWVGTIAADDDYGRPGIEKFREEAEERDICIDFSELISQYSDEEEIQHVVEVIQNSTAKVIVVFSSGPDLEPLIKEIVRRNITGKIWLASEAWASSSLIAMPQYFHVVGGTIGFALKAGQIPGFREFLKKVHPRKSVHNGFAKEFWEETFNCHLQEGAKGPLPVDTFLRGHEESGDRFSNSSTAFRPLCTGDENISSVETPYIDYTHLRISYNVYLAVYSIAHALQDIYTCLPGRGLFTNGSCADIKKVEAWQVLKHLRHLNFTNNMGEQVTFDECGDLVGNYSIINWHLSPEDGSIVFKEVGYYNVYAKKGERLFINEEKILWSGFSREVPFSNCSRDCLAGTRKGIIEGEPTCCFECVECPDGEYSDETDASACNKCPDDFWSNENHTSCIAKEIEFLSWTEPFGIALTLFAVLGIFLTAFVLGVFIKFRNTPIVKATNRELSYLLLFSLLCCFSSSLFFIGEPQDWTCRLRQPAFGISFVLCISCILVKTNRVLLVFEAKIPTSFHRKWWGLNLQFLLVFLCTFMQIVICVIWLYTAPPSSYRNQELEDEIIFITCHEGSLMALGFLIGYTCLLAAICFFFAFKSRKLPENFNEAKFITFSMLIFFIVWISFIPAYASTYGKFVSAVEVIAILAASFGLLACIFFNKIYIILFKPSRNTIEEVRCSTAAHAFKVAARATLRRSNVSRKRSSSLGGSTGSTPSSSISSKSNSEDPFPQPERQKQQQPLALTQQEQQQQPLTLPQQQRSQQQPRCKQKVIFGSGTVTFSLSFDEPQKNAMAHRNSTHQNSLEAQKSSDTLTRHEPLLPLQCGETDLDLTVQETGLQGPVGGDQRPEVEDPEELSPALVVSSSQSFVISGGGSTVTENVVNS
Conditions: activation of CaR; Olszak et al., 2000; cited from earlier work.

The test system of a further data set is bone marrow stem cells. The settings on record: Tayaramma et al., 2006; cited from earlier work.
The test system of data set [1] is Lin− cells. Kind of data set: Cell death in 2nd stage induction culture. It counts as cell-based, mouse. The settings on record: about 15 nM, 6 hr in the 2nd stage. An excerpt:
Use of HDAC inhibitors may take into account the fact that high dose and/or long period of HDAC inhibition may induce widespread changes in gene expression. For example, treatment of metanephric organs cultures with HDAC inhibitor induces significant disturbance in the transcription network (Chen et al., 2007).

In data set [2] the test system is lymphoid cell line / multiple cell lines. The settings on record: cited from earlier work.
In data set [3] the test system is cadherin 6, cadherin 16, Lim1, Gdnf and Pax2 promoters. Kind of data set: ChIP assay of histone acetylation on renal gene promoters. The class given is cell-based, mouse. The settings on record: TSA 15 nM, 6 h at 2nd stage vs vehicle; ChIP after 3rd stage. An excerpt: Increased histone acetylation accompanies cell conversion. To begin to understand the mechanisms of cell conversion and its associated nuclear reprogramming, the inventors examined the possibility of epigenetic regulation by histone modifications and chromatin remodeling. Chromatin modifications were detected using chromatin immunoprecipitation assays (ChIP assays) as described (Shang et al., 2000). Antibodies to acetylated histones H3 and H4 and tri-methylated histone H3 (lysine 9 or K9) were used for immunoprecipitation. […] In contrast, there was no change in tri-methylation of H3K9 on the cadherin 6 promoter (top panel). Acetylation of H3 but not H4 on the cadherin 16 promoter was increased after the 3rd stage. Tri-methylation of H3K9 on the cadherin 16 promoter seemed to increase after the 3rd stage.
(§1) The HDAC inhibitor TSA increases expression of renal developmentally regulated genes in induced cells. Although HDAC inhibitor trichostatin A (TSA) is a non-selective inhibitor of HDACs, TSA only alter 2-10% of the genes tested in multiple cell lines (Gray et al., 2004; Lee et al., 2006b; Mitsiades et al., 2004; Peart et al., 2005).

The test system of data set [4] is Lin− cells isolated from cre^ksp; R26R-EYFP mice. Kind of data set: Flow cytometry of EYFP+ cells (renal cell conversion). It counts as cell-based, mouse. The settings on record: TSA 15 nM, 6 h at 2nd stage. How it is done:
To confirm renal conversion, Lin^− cells were isolated from bitransgenic creksp; R26R-EYFP mice that express EYFP specifically in the tubular epithelial cells of the kidney. […] However, after the 3rd stage, the induced cells expressed EYFP mRNA by RT-PCR analysis (FIG. 7B) and EYFP protein by immunostaining (FIG. 7C).
Treatment with TSA results in a 6-fold increase in EYFP^+ cells. Lin^− cells isolated from cre^ksp; R26R-EYFP mice were treated with vehicle or TSA (15 nM, 6 h) at the 2nd stage and EYFP^+ cells were quantified by flow cytometry analysis.

A further data set deals with HDAC. Conditions: Vigushin et al., 2001, cited from earlier work.
Data set [5] relates to Lin− cells. The data set can be described thus: qRT-PCR of renal developmentally regulated genes in induced cells. The class given is cell-based, mouse. The settings on record: TSA 15 nM, 6 h at 2nd stage vs vehicle, cells after 3rd stage. How it is done: Lin^− cells, which include lineage undifferentiated hematopoietic stem cells and progenitor cells, were isolated to 99.8% purity by FACS as described (Lin et al., 2003). Purified Lin^− cells were cultured sequentially in the presence of cytokines including IL-3, IL-6, and stem cell factor for 48 hr (1st stage); nephrogenic factors including retinoic acid, activin-A and BMP7 for 48 hr (2nd stage); and epithelial growth factors including EGF, IGF-1 and HGF for 72 hr (3rd stage). The total induction period is 1 week. Cytokine treatment is known to stimulate HSC to enter the cell cycle and the cells remain as hematopoietic cells after 48 hr in these culture conditions (Luskey et al., 1992; Reddy et al., 1997). The nephrogenic factors that were used can induce differentiation of mouse ES cells into renal epithelial cells as reported by Kim and Dressler (2005). Therefore, the inventors reasoned that nephrogenic factors might induce cycling Lin^− cells to select a renal cell fate. Further treatment of the cells with epithelial growth factors would promote epithelial growth. After the 1st stage, the cells remained small, round, and discrete (FIG. 5B, top left). After the 3rd stage, the cells increased in size and formed floating spheres (FIG. 5B, top right). The inventors took the precaution of only transferring cells in suspension to new culture dishes. The adherent cells that might represent bone marrow stromal/stem cells (MSC) were discarded. In some experiments, the inventors continued the cultures for an additional 7 days after the induction period (total 14 days) and observed an epithelial-like morphology in the cells (FIG. 5B, bottom). In the Examples section, the inventors will use the term “induced cells” to refer to cells after the 3rd stage culture (1 week induction).
as §1

`COc1cccc([C@@H](C)NCCCc2ccccc2)c1` [NPS R-467]: the “monocyte migration in response to calcium” value on CaR is given as “increases”.

`CC(/C=C/C(=O)NO)=C\[C@@H](C)C(=O)c1ccc(N(C)C)cc1` [TSA, trichostatin A]: the “differentiation of insulin-producing cells” value in the data set on bone marrow stem cells is “led to differentiation of insulin-producing cells”. The cell death result in the data set on Lin− cells [1] is “no increase in cell death”. In data set [2] (340 expressed genes in a lymphoid cell line, Van Lint et al., 1996), the “proportion of expressed genes altered” value is 2%. The “proportion of genes tested altered” value in data set [2] (multiple cell lines, literature) was 2-10%. The “histone H3 and H4 acetylation on promoters of renal genes” value in data set [3] was “increased histone H3 and H4 acetylation”. Also, the “increase in EYFP+ cells (cell conversion) vs vehicle” value in data set [4] was found to be 6 fold. In data set [4] (flow cytometry, vehicle group 6.3%), the “EYFP+ cells after the 3rd stage” value was 37.9%. Also, the “IC50 of inhibition of HDAC activity” value in the data set with HDAC is given as “nanomolar range”. Besides, in the data set with HDAC (in cell cultures and in vivo), the “reversibility of inhibition of HDAC activity” value is listed as “reversible”. In the data set with Lin− cells [5] (*p<0.05, n=3), the “Cdh 6 -Fold increase” value is 16.5* Fold, the “Cdh 16 -Fold increase” value is recorded as 4.39* Fold, the “Gdnf -Fold increase” value is reported as 5.39* Fold and the “Lim1 -Fold increase” value is given as 8.29* Fold. In addition, in the data set on Lin− cells [5] (*p<0.05, n=3), the “Osr 1 -Fold increase” value is 14.95* Fold and the “Pax2 -Fold increase” value is recorded as 3.28* Fold. The “18s RNA -Fold increase” value in the data set on Lin− cells [5] (control gene, n=3) is listed as −0.06 Fold. Also, the “Six2 -Fold increase” value in the data set with Lin− cells [5] (n=3) came to 1.3 Fold.
